Source: PMC6297231 (Nature Communications, 2018)
Like-named read-outs stand apart in the source and are kept apart here. One block for each molecule: values may come before it. Where no end group is shown, it is not given here.

What was measured:
Mcl-1 [1] = target: T1, Mcl-1 (Homo sapiens, UniProt Q07820); test: TR-FRET binding assay; parameters: N-terminal GST-tagged-Mcl-1 protein from Mcl-1 (E171-G327); made in house; host or cells: E. coli
Protocol: Percent inhibition was calculated based upon min (control compound) vs. max (DMSO) according to Eq. (2) and the IC50 was derived the smart fit curve (Genedata screener) of % inhibition vs. concentration. Ki values were calculated from Eq.
Target sequence in this assay (Q07820 171-327): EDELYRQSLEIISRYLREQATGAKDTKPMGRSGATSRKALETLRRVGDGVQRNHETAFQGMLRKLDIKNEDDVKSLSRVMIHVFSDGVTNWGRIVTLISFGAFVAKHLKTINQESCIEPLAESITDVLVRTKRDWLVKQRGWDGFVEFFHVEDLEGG

MV411 = test: Caspase-3/7 activation assay; type: cell-based; conditions: Homo sapiens, MV4-11
Protocol: (§1) Cells were plated at 3000 cells/well in 384-well white plates in corresponding cell growth media. […] Caspase-3/7 activation was subsequently determined using a Caspase-Glo 3/7 Reagent (Promega) and viability was assayed using the CellTiter-Glo Reagent (Promega) as described in manufacturer’s instructions. Dose–response curves for caspase-3/7 activation and viability were plotted and analyzed (including EC50 and GI50 determination) using GraphPad Prism.

Mcl-1 [2] = target: T1, Mcl-1; test: SPR direct binding assay; parameters: 6His-tagged Mcl-1 protein (E171-G327) was immobilized using NTA capture-coupling
Target sequence in this assay (Q07820 171-327): as above
Protocol: A Biacore T200 instrument (GE Healthcare) was used to monitor binding interactions using a direct binding assay format. 6His-tagged Mcl-1 protein (E171-G327) was immobilized using NTA capture-coupling at a flow rate of 10 μL min^-1 and using an immobilization running buffer containing 10 mM HEPES, 300 mM NaCl, 1 mM TCEP, and 0.05% Tween-20 at 25 °C. […] Approximately 300 response units of Mcl-1 protein (2 μg mL^-1 in immobilization running buffer) were immobilized using the ‘aim for’ function in the T200 Control Software (GE Healthcare). Remaining reactive esters were blocked using a 7 min injection of 1 M ethanolamine. Reference flow cells were prepared without protein. All binding measurements were performed in 10 mM Tris, pH 7.5, 300 mM NaCl, 1 mM TCEP, 1% DMSO, and 0.02% Tween-20 at 25 °C at a flow rate of 30 μL min^-1. Buffer was primed through the instrument overnight to stabilize the surface before subsequent assay steps. Prior to kinetic analysis, solvent calibration and double referencing subtractions were made to eliminate bulk refractive index changes, injection noise, and data drift. Affinity and binding kinetic parameters were determined by global fitting to a 1:1-binding model within the Biacore T200 Evaluation Software (GE Healthcare).

H23 = test: Caspase-3/7 activation assay; type: cell-based; conditions: Homo sapiens, NCI-H23
Protocol: as §1

MOLP8 = test: Caspase-3/7 activation assay; type: cell-based; conditions: Homo sapiens, MOLP-8
Protocol: as §1

Mcl-1 [3] = target: T1, Mcl-1; test: 2D protein-observed NMR titration (TROSY); type: binding; parameters: The 6His-TEV-Mcl-1(162–326) construct in a pET vector was expressed in BL21-GOLD cells; 6His-TEV (N, cleaved yes); made in house; host or cells: E. coli BL21-GOLD
Protocol: The 6His-TEV-Mcl-1(162–326) construct in a pET vector was expressed in BL21-GOLD cells and inducted by IPTG. ^15N-labeled GS-Mcl-1 was obtained by growing cells in Isogro-15N (Sigma-Aldrich) media (5 g L^-1) containing 50 µg mL^-1 Kanamycin and 12.5 µg mL^-1 Tetracycline. Expression was induced at OD^600 = 0.8 with 0.1 mM IPTG. Cells were then incubated overnight at 30 °C, harvested by centrifugation and lysed by sonication in buffer H (40 mM Hepes pH 8.0, 300 mM NaCl, 10 mM imidazole, 1 mM TCEP), supplemented with 0.3 mg mL^-1 lysozyme, 2.5 U mL^-1 benzonase, and EDTA-free protease inhibitors (Roche). The sample was centrifuged and supernatant collected and incubated with Ni-NTA resin (60 min at 4 °C). […]
NMR spectra were recorded at 298 K on a Bruker Avance 600 MHz spectrometer running Topspin 2.3 equipped with a 5 mm TCI Cryoprobe with Z-axis gradients. […] Binding was detected by ^1H–^15N 2D Transverse relaxation optimized spectroscopy (TROSY) spectra of the protein (F2 × F1) 2048 × 50 complex pairs (in Echo-Antiecho mode), 12019 × 1800 Hz sweep width, 85.2 ms × 27.8 ms acquisition times. Compound titration was recorded from fresh compound stock in DMSO-d6, and spectra were recorded at ligand concentrations of 0.04, 0.08, 0.16, 0.32, 0.63, and 1.24 mM. […]
Target sequence in this assay (Q07820 162-326): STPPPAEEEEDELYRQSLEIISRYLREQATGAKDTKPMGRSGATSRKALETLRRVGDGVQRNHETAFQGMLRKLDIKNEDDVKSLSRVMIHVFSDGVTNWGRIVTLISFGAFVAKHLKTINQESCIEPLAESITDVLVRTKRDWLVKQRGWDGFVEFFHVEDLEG

[4] = target: T2, N-Terminal 6His-tagged Bfl-1 protein from Bfl-1 (M1-K151) (UniProt Q16548 1-151); test: AlphaScreen or HTRF; TR-FRET: His-tagged protein with Eu-labeled anti-His antibody and HyLite Fluor 647-labeled peptide; 384-well plates, 24 °C, 120-180 min; how the peptide Kd was determined is not told; conditions: both partners purified
T2 construct: Bfl-1 (Bfl-1/A1), residues M1-K151; also called His-Bfl-1; source: E. coli, purified (Ni-NTA resin, size-exclusion chromatography); not shown: 6His, N-terminal, kept
T2 sequence (looked up): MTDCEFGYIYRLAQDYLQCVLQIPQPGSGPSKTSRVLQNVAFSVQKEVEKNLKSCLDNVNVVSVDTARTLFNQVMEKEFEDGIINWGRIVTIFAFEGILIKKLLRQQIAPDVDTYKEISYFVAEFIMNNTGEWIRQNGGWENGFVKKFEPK

[5] = target: T3, N-terminal GST-tagged-Mcl-1 protein from Mcl-1 (E171-G327) (human, UniProt Q07820 171-327); test: AlphaScreen or HTRF; TR-FRET: GST-tagged protein with Eu-labeled anti-GST antibody and HyLite Fluor 647-labeled peptide; 384-well plates, 24 °C, 120-180 min; how the peptide Kd was determined is not told; conditions: both partners purified
T3 construct: Mcl-1, residues E171-G327; also called GST-Mcl-1; not shown: GST, N-terminal, kept
T3 sequence (Q07820 171-327): as the sequence (Q07820 171-327) above

[6] = target: T4, N-terminal GST-tagged Bcl-xL protein from Bcl-xL (1-209) (UniProt Q07817-1 1-209); test: as above; conditions: both partners purified
T4 construct: Bcl-xL, residues 1-209; also called GST-Bcl-xl; not shown: GST, N-terminal, kept
T4 sequence (Q07817 1-209): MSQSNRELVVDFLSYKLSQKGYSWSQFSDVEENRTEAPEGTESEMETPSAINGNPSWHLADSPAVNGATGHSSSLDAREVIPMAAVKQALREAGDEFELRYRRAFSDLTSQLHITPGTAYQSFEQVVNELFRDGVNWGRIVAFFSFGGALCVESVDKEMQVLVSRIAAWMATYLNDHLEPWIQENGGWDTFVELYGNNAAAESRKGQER

- IC50 (Mcl-1 [1]; mean of log transformed data, read-out: MCL1 FRET pIC50 (converted)): 0.288 µM
- IC50 (Mcl-1 [1]; read-out: Mcl-1 FRET, IC50): 0.29 µM
- EC50 (MV411; caspase activation, Mcl-1-dependent cell line, read-out: MV4-11, EC50): > 31.5 µM
- EC50 (MV411; mean of log transformed data, read-out: MV4-11 caspase pEC50 (converted)): > 31.6 µM
- Kd (Mcl-1 [2]; mean of log transformed data, read-out: MCL1 SPR pKd (converted)): 0.646 µM
- Kd (Mcl-1 [2]; read-out: Mcl-1 SPR, Kd): 0.65 µM
- EC50 (H23; caspase activation, Mcl-1-dependent cell line, read-out: NCI-H23, EC50): > 31.5 µM
- EC50 (H23; mean of log transformed data, read-out: NCI-H23 caspase pEC50 (converted)): > 31.6 µM
- EC50 (MOLP8; caspase activation, Mcl-1-dependent cell line, read-out: MOLP-8, EC50): > 31.5 µM
- EC50 (MOLP8; mean of log transformed data, read-out: MOLP-8 caspase pEC50 (converted)): > 31.6 µM
- Kd (Mcl-1 [3]; fast exchange shifts, second weaker binding event, read-out: Kd, binding event 2): 141 ± 8 µM
- Kd (Mcl-1 [3]; slow exchange binding, read-out: Kd, binding event 1): < 5 µM
Molecule: Cc1nn(C)c(C)c1-c1cccc2c(CCCOc3cccc4ccccc34)c(C(=O)O)[nH]c12 [Compound 2, reference compound]

- Kd [4]: 0.01 µM
- Kd [5]: 0.0015 µM
B1: HyLite Fluor 647-labeled Bim peptide C (Hilyte647 C2 Maleimide)-WIAQELRRIGDEFN (peptide)
peptide: C(HiLyte Fluor 647 C2 maleimide)WIAQELRRIGDEFN
notes: added N-terminal cysteine that carries the dye; Bim BH3 stretch; also called Hylite Bim peptide

- Kd [6]: 0.01 µM
B2: HyLite Fluor 647-labeled BAK peptide C(Hilyte647 C2 Maleimide)-GGGQVGRQLAIIGDDINR (peptide)
peptide: C(HiLyte Fluor 647 C2 maleimide)GGGQVGRQLAIIGDDINR
notes: added N-terminal cysteine that carries the dye, and glycine spacer; Bak BH3 stretch; also called Hylite Bak peptide
